Experimental data taken from patent US20220024882A1, “NOVEL TUMOR ANTIGEN BINDING AGENTS AND USES THEREOF” (ITM Isotopen Technologien München AG, priority 2018, published 2022).
Where “and” joins values, the source holds several entries; their conditions need not be identical. Equal entries are not always repeated.

Key:
[1] = test system: PC-3 PIP/flu tumor-bearing mice; test: Biodistribution study in PC-3 PIP/flu tumor-bearing mice; assay type: in vivo, athymic nude Balb/c mice; details: for Kidneys / Tumor-to-kidney / Blood / Bone / Heart / Intestines / Liver / Lung / Muscle / Salivary glands / Spleen / Stomach / Tumor-to-blood / Tumor-to-liver: PC-3 PIP/flu tumor-bearing mice; for PC-3 flu Tumor: PSMA-negative tumor xenograft; for PC-3 flu Tumor / PC-3 PIP Tumor: mice; for PC-3 PIP Tumor: PSMA-positive tumor xenograft
Procedure: (§1) In vivo experiments were approved by the local veterinarian department and conducted in accordance with the Swiss law of animal protection. Mice were obtained from Charles River Laboratories, Sulzfeld, Germany, at the age of 5-6 weeks. Female, athymic nude Balb/c mice were subcutaneously inoculated with PSMA-positive PC-3 PIP cells (6×10^6 cells in 100 μL Hank's balanced salt solution (HBSS) with Ca^2+/Mg^2+) on the right shoulder and with PSMA-negative PC-3 flu cells (5×10^6 cells in 100 μL HBSS Ca^2+/Mg^2+) on the left shoulder. Two weeks later, the tumors reached a size of about 80-300 mm^3 suitable for the performance of the biodistribution studies.
Biodistribution studies were performed 12-15 days after PC-3 PIP/flu tumor cell inoculation. […] The radioligands were injected in a lateral tail vein in a volume of 100-200 μL. Mice were euthanized at different time points after injection (p.i.) of the radioligands. Selected tissues and organs were collected, weighed and measured using a γ-counter. The results were decay-corrected and listed as a percentage of the injected activity per gram of tissue mass (% IA/g) (Table 3 and 4).
Mice were obtained from Charles River Laboratories, Sulzfeld, Germany, at the age of 5-6 weeks. Female, athymic nude BALB/c mice were subcutaneously inoculated with PSMA-positive PC-3 PIP cells (6×10^6 cells in 100 μL Hank's balanced salt solution (HBSS)) on the right shoulder and with PSMA-negative PC-3 flu cells (5×10^6 cells in 100 μL HBSS) on the left shoulder. Two weeks later, the tumors reached a size of about 80-300 mm^3 suitable for the performance of the biodistribution and imaging studies.
Biodistribution studies were performed 12-15 days after PC-3 PIP/flu tumor cell inoculation. ^177Lu-Ibu-sPSMA was diluted in 0.9% NaCl containing 0.05% bovine serum albumin (BSA) to prevent adhesion to the vial and syringe material. The radioligand was injected in a lateral tail vein in a volume of 100 μL. Mice were euthanized at different time points after injection (p.i.) of the radioligand. Selected tissues and organs were collected, weighed and measured using a γ-counter. The results were decay-corrected and listed as a percentage of the injected activity per gram of tissue mass (% IA/g) (Table 6, FIG. 18).

[2] = Whole-body activity measurements, tumor-bearing mice; assay type: in vivo, athymic nude Balb/c mice; details: 4 h p.i., 30 MBq, 1 nmol i.v., activity right after injection = 100%
Procedure: as §1, with “imaging” for “biodistribution”
The single radioligands (specific activity: 30 MBq/nmol) were diluted in 0.9% NaCl containing 0.05% bovine serum albumin (BSA) and i.v. injected into PC-3 PIP/flu tumor bearing mice (30 MBq, 1 nmol, 100 μL) for SPECT/CT imaging purposes. The mice were measured in a dose calibrator at 4 h, 24 h, 48 h and 72 h p.i., respectively.

Row | Structure (SMILES) | Blood ([1]; 4 h p.i.) | Bone ([1]; 4 h p.i.) | Heart ([1]; 4 h p.i.) | Intestines ([1]; 4 h p.i.) | Kidneys ([1]; 4 h p.i.) | Liver ([1]; 4 h p.i.) | Lung ([1]; 4 h p.i.) | Muscle ([1]; 4 h p.i.) | Salivary glands ([1]; 4 h p.i.) | Spleen ([1]; 4 h p.i.) | Stomach ([1]; 4 h p.i.) | Tumor-to-blood ([1]; 4 h p.i.) | Tumor-to-kidney ([1]; 4 h p.i.) | Tumor-to-liver ([1]; 4 h p.i.) | PC-3 flu Tumor ([1]; 4 h p.i.) | PC-3 PIP Tumor ([1]; 4 h p.i.) | Bone ([1]; 24 h p.i.) | Heart ([1]; 24 h p.i.) | Intestines ([1]; 24 h p.i.) | Kidneys ([1]; 24 h p.i.) | other results
1 | CC(C)Cc1ccc(C(C)C(=O)NC(CC(=O)O)C(=O)NCCCCC(NC(=O)CN2CCN(CC(=O)O)CCN(CC(=O)O)CCN(CC(=O)O)CC2)C(=O)NCC2CCC(C(=O)NC(Cc3ccc4ccccc4c3)C(=O)NCCCCC(NC(=O)NC(CCC(=O)O)C(=O)O)C(=O)O)CC2)cc1 (stereo not shown) [^177Lu-Ibu-Dα-PSMA, metal not drawn] | 2.33 ± 0.71 % IA/g | 0.37 ± 0.10 % IA/g | 0.89 ± 0.27 % IA/g | 0.49 ± 0.08 % IA/g | 27.2 ± 3.31 % IA/g | 0.84 ± 0.22 % IA/g | 1.54 ± 0.35 % IA/g | 0.35 ± 0.08 % IA/g | 0.74 ± 0.20 % IA/g | 0.90 ± 0.04 % IA/g | 0.25 ± 0.08 % IA/g | 22.5 ± 5.28 | 1.82 ± 0.03 | 60.8 ± 11.1 | 1.00 ± 0.21 % IA/g | 49.4 ± 5.33 % IA/g | 0.11 ± 0.02 % IA/g | 0.18 ± 0.03 % IA/g | 0.11 ± 0.02 % IA/g | 18.2 ± 3.06 % IA/g | Kidneys ([1]; 1 h p.i.): 73±2 % IA/g; Tumor-to-kidney ([1]; 1 h p.i.): 0.59±0.08; Blood ([1]; 24 h p.i.): 0.33 ± 0.06 % IA/g; Liver ([1]; 24 h p.i.): 0.37 ± 0.04 % IA/g; Lung ([1]; 24 h p.i.): 0.39 ± 0.09 % IA/g; Muscle ([1]; 24 h p.i.): 0.07 ± 0.02 % IA/g; Salivary glands ([1]; 24 h p.i.): 0.21 ± 0.04 % IA/g; Spleen ([1]; 24 h p.i.): 0.46 ± 0.10 % IA/g; Stomach ([1]; 24 h p.i.): 0.12 ± 0.03 % IA/g; Tumor-to-blood ([1]; 24 h p.i.): 198 ± 32.6; Tumor-to-kidney ([1]; 24 h p.i.): 3.56 ± 0.34; Tumor-to-liver ([1]; 24 h p.i.): 196 and 196 ± 44.4; PC-3 flu Tumor ([1]; 24 h p.i.): 0.38 ± 0.05 % IA/g; PC-3 PIP Tumor ([1]; 24 h p.i.): 84.2±14.9 % IA/g; whole-body retention of radioactivity [2]: 29%
2 | CC(C)Cc1ccc(C(C)C(=O)NC(CC(=O)NCCCCC(NC(=O)CN2CCN(CC(=O)O)CCN(CC(=O)O)CCN(CC(=O)O)CC2)C(=O)NCC2CCC(C(=O)NC(Cc3ccc4ccccc4c3)C(=O)NCCCCC(NC(=O)NC(CCC(=O)O)C(=O)O)C(=O)O)CC2)C(=O)O)cc1 (stereo not shown) [^177Lu-Ibu-Dβ-PSMA, metal not drawn] | 13.2±1.15 % IA/g | 1.87 ± 0.16 % IA/g | 4.19 ± 0.23 % IA/g | 1.81 ± 0.23 % IA/g | 32.2 ± 2.46 % IA/g | 3.87 ± 0.16 % IA/g | 8.55 ± 3.30 % IA/g | 1.79 ± 0.48 % IA/g | 3.33 ± 0.15 % IA/g | 2.60 ± 0.23 % IA/g | 1.51 ± 0.18 % IA/g | 5.03±0.73 | 2.06 ± 0.23 | 17.0 ± 1.73 | 3.86 ± 0.18 % IA/g | 65.7 ± 7.31 % IA/g | 0.26 ± 0.03 % IA/g | 0.57 ± 0.02 % IA/g | 0.40 ± 0.07 % IA/g | 21.3 ± 1.53 % IA/g | Blood ([1]; 24 h p.i.): 1.28 ± 0.05 % IA/g; Liver ([1]; 24 h p.i.): 0.69 ± 0.07 % IA/g; Lung ([1]; 24 h p.i.): 1.17 ± 0.06 % IA/g; Muscle ([1]; 24 h p.i.): 0.22 ± 0.04 % IA/g; Salivary glands ([1]; 24 h p.i.): 0.61 ± 0.02 % IA/g; Spleen ([1]; 24 h p.i.): 1.03 ± 0.08 % IA/g; Stomach ([1]; 24 h p.i.): 0.48 ± 0.13 % IA/g; Tumor-to-blood ([1]; 24 h p.i.): 83.6 ± 9.06; Tumor-to-kidney ([1]; 24 h p.i.): 4.90 ± 0.29; Tumor-to-liver ([1]; 24 h p.i.): 151 ± 3.37; PC-3 flu Tumor ([1]; 24 h p.i.): 0.79 ± 0.12 % IA/g; PC-3 PIP Tumor ([1]; 24 h p.i.): 106±9.70 % IA/g; whole-body retention of radioactivity [2]: 49%
3 | CC(C)Cc1ccc(C(C)C(=O)NC(CC(N)=O)C(=O)NCCCCC(NC(=O)CN2CCN(CC(=O)O)CCN(CC(=O)O)CCN(CC(=O)O)CC2)C(=O)NCC2CCC(C(=O)NC(Cc3ccc4ccccc4c3)C(=O)NCCCCC(NC(=O)NC(CCC(=O)O)C(=O)O)C(=O)O)CC2)cc1 (stereo not shown) [^177Lu-Ibu-N-PSMA, metal not drawn] | 3.58 ± 1.39 % IA/g | 0.56 ± 0.22 % IA/g | 1.23 ± 0.61 % IA/g | 0.50 ± 0.18 % IA/g | 27.1 ± 8.37 % IA/g | 1.27 ± 0.55 % IA/g | 2.20 ± 0.95 % IA/g | 0.47 ± 0.19 % IA/g | 0.94 ± 0.38 % IA/g | 1.40 ± 0.75 % IA/g | 0.51 ± 0.23 % IA/g | 20.1 ± 6.22 | 2.48 ± 0.11 | 18.2 ± 2.70 | 1.15 ± 0.52 % IA/g | 65.4 ± 15.6 % IA/g | 0.08 ± 0.02 % IA/g | 0.12 ± 0.03 % IA/g | 0.09 ± 0.02 % IA/g | 8.02±1.13 % IA/g | Liver ([1]; 24 h p.i.): 0.32 ± 0.05 % IA/g; Lung ([1]; 24 h p.i.): 0.24 ± 0.06 % IA/g; Muscle ([1]; 24 h p.i.): 0.06 ± 0.02 % IA/g; Salivary glands ([1]; 24 h p.i.): 0.57 ± 0.35 % IA/g; Spleen ([1]; 24 h p.i.): 0.24 ± 0.06 % IA/g; Stomach ([1]; 24 h p.i.): 0.17 ± 0.09 % IA/g; Tumor-to-blood ([1]; 24 h p.i.): 227 ± 41.7; Tumor-to-kidney ([1]; 24 h p.i.): 6.90 ± 2.43; Tumor-to-liver ([1]; 24 h p.i.): 182 and 182 ± 52.6; PC-3 flu Tumor ([1]; 24 h p.i.): 0.23 ± 0.01 % IA/g; PC-3 PIP Tumor ([1]; 24 h p.i.): 58.0 ± 21.0 % IA/g; whole-body retention of radioactivity [2]: 12%
4 | CC(C)Cc1ccc(C(C)C(=O)NCCCCC(NC(=O)CN2CCN(CC(=O)O)CCN(CC(=O)O)CCN(CC(=O)O)CC2)C(=O)NCC2CCC(C(=O)NC(Cc3ccc4ccccc4c3)C(=O)NCCCCC(NC(=O)NC(CCC(=O)O)C(=O)O)C(=O)O)CC2)cc1 (stereo not shown) [^177Lu-Ibu-PSMA, metal not drawn] | 5.96 ± 1.53 % IA/g | 1.01 ± 0.18 % IA/g | 2.28 ± 0.68 % IA/g | 1.00 ± 0.27 % IA/g | 32.5 ± 0.86 % IA/g | 2.77 ± 0.43 % IA/g | 3.72 ± 0.73 % IA/g | 0.97 ± 0.37 % IA/g | 1.66 ± 0.36 % IA/g | 1.76 ± 0.23 % IA/g | 0.79 ± 0.26 % IA/g | 14.1 ± 2.25 | 2.60 ± 0.08 | 29.7 ± 3.11 | 2.19 ± 0.52 % IA/g | 81.3±6.28 % IA/g | 0.20 ± 0.04 % IA/g | 0.33 ± 0.06 % IA/g | 0.23 ± 0.04 % IA/g | 16.5 ± 1.48 % IA/g | Blood ([1]; 24 h p.i.): 0.58 ± 0.09 % IA/g; Liver ([1]; 24 h p.i.): 0.91 ± 0.12 % IA/g; Lung ([1]; 24 h p.i.): 0.62 ± 0.12 % IA/g; Muscle ([1]; 24 h p.i.): 0.12 ± 0.04 % IA/g; Salivary glands ([1]; 24 h p.i.): 0.34 ± 0.07 % IA/g; Spleen ([1]; 24 h p.i.): 0.68 ± 0.15 % IA/g; Stomach ([1]; 24 h p.i.): 0.23 ± 0.02 % IA/g; Tumor-to-blood ([1]; 24 h p.i.): 149 ± 16.7; Tumor-to-kidney ([1]; 24 h p.i.): 5.36 ± 0.73; Tumor-to-liver ([1]; 24 h p.i.): 95.4 ± 10.6; PC-3 flu Tumor ([1]; 24 h p.i.): 0.58 ± 0.19 % IA/g; PC-3 PIP Tumor ([1]; 24 h p.i.): 86.8±18.0 % IA/g and 86.9 ± 18.0 % IA/g; whole-body retention of radioactivity [2]: 33%
